Assay results from patent US10543195B2, “Peptides for skin rejuvenation and methods of using the same” (Anteis SA, priority 2013, dated 2020).
* marks the point of attachment. Palmitoyl = CCCCCCCCCCCCCCCC(=O)*

Assays:
fibrillin 1 = experiment: RT-qPCR gene expression in NHDF: fibrillin 1; format: cell-based, human; settings: 300 ppm (0.03%), 24 h, vs control
Description: (§1) Normal human dermal fibroblasts (NHDF); used at the 8th passage, were cultured in culture medium (DMEM supplemented with 10% fetal calf serum, 2 mM L-glutamine, 50 U/ml penicillin, and 50 μg/ml streptomycin) in 24-well plates for 48 h at 37° C. and 5% CO2 with a renewal of culture medium after 24 h. The culture medium was then removed, replaced by assay medium (DMEM culture medium supplemented with 1% fetal calf serum, 2 mM L-glutamine, 50 U/ml penicillin, and 50 μg/ml streptomycin) and the cells were further incubated for 24 h. The cells were then treated with the test peptides, or not (control), or with the reference TGF-beta 1 and incubated for 24 h. […] The expression of the markers was analyzed using quantitative real time polymerase chain reaction (RT-qPCR) method on mRNA extracted from the cell monolayers for each treatment; whereby the replicates were pooled before RNA extraction. […] The amount and quality of RNA were evaluated using a lab-on-a-chip Bioanalyzer (Agilent Technologies). […] Quantification of cDNA was performed using Nanovue (GE Healthcare) and cDNA was adjusted. […]
(§2) The incorporation of the fluorescence in amplified DNA was continuously measured during the PCR cycles. […] The value selected for RE calculations is the “output point” (Ct) of the fluorescence curve. For a considered marker, the highest is the cycle number; the lowest is the mRNA quantity. […]

collagen V (alpha 1) = experiment: RT-qPCR gene expression in NHDF: collagen V (alpha 1); format: cell-based, human; settings: 300 ppm (0.03%), 24 h, vs control
Description: as §1, §2

collagen VII (alpha 1) = experiment: RT-qPCR gene expression in NHDF: collagen VII (alpha 1); format: cell-based, human; settings: 300 ppm (0.03%), 24 h, vs control
Description: as §1, §2

hyaluronan synthase 2 = experiment: RT-qPCR gene expression in NHDF: hyaluronan synthase 2; format: cell-based, human; settings: 300 ppm (0.03%), 24 h, vs control
Description: as §1, §2

collagen I (alpha 1) = experiment: RT-qPCR gene expression in NHDF: collagen I (alpha 1); format: cell-based, human; settings: 24 h, vs control; for stimulation of formation of collagen I (alpha 1) (mRNA, RT-qPCR): 300 ppm (0.03%)
Description: (§3) Normal human dermal fibroblasts (NHDF); used at the 8th passage, were cultured in culture medium (DMEM supplemented with 10% fetal calf serum, 2 mM L-glutamine, 50 U/ml penicillin, and 50 μg/ml streptomycin) in 24-well plates for 48 h at 37° C. and 5% CO2 with a renewal of culture medium after 24 h. The culture medium was then removed, replaced by assay medium (DMEM culture medium supplemented with 1% fetal calf serum, 2 mM L-glutamine, 50 U/ml penicillin, and 50 μg/ml streptomycin) and the cells were further incubated for 24 h. The cells were then treated with the test peptides, or not (control), or with the reference TGF-beta 1 and incubated for 24 h. All experimental conditions were performed 4-times (n=4). At the end of the incubation, the cells were washed in PBS solution and immediately frozen at about −80° C. The expression of the markers was analyzed using quantitative real time polymerase chain reaction (RT-qPCR) method on mRNA extracted from the cell monolayers for each treatment; whereby the replicates were pooled before RNA extraction. Analysis of gene expression was performed in duplicate (n=2) using a PCR array. Total RNA was extracted from each sample using TriPure Isolation Reagent® according to the supplier's instructions. The amount and quality of RNA were evaluated using a lab-on-a-chip Bioanalyzer (Agilent Technologies). […] Quantification of cDNA was performed using Nanovue (GE Healthcare) and cDNA was adjusted. […]
as §2
(§4) This evaluation was realized with non-cytotoxic concentrations of the test peptides. Cytotoxicity of the test peptides in the assay medium was previously determined in NHDF by the MTT reduction assay and morphological observations with help of microscope after a 24 h incubation time. […]

elastin = experiment: RT-qPCR gene expression in NHDF: elastin; format: cell-based, human; settings: 300 ppm (0.03%), 24 h, vs control
Description: as §1, §2

laminin (alpha 4) = experiment: RT-qPCR gene expression in NHDF: laminin (alpha 4); format: cell-based, human; settings: 300 ppm (0.03%), 24 h, vs control
Description: as §1, §2

hyaluronic acid [1] = experiment: Hyaluronic acid ELISA in culture supernatant of NHDF; format: cell-based, human; settings: 72 h
From the text: For the interpretation of the data related to the stimulation of the formation of extracellular matrix components as determined during the in vitro experiments, a “significant” stimulation of the formation of extracellular matrix components means a stimulation of at least 20% more than measured using a control material under identical experimental conditions. The control material is the identical material (here: assay medium) as used when testing the active (here: peptide(s)) but without the active(s).
Normal human dermal fibroblasts (NHDF); used at the 8th passage, were cultured in culture medium (DMEM supplemented with 10% fetal calf serum, 2 mM L-glutamine, 50 U/ml penicillin, and 50 μg/ml streptomycin) in 96-well plates for 24 h at 37° C. and 5% CO2.
Afterwards, the culture medium was removed and replaced by assay medium (DMEM culture medium supplemented with 2% fetal calf serum, 2 mM L-glutamine, 50 U/ml penicillin, and 50 μg/ml streptomycin) containing the test peptides or not (control). The cells were then incubated for 72 h. All experimental conditions were performed 3-times (n=3). At the end of the incubation, culture supernatants were collected and immediately frozen at about −80° C.
Hyaluronic acid was quantified in the culture supernatant using the Duoset Hylaluronan ELISA kit (R&D Systems Ref. DY3614, 0.37 ng/ml as low detection limit) according to the provider's specifications.
This evaluation was realized with non-cytotoxic concentrations of the test peptides. Cytotoxicity of the test peptides in the assay medium was previously determined in NHDF by the MTT reduction assay and morphological observations with help of microscope after a 72 h incubation time.

collagen VI (alpha 1) = experiment: RT-qPCR gene expression in NHDF: collagen VI (alpha 1); format: cell-based, human; settings: 300 ppm (0.03%), 24 h, vs control
Description: as §1, §2

collagen III (alpha 1) = experiment: RT-qPCR gene expression in NHDF: collagen III (alpha 1); format: cell-based, human; settings: 24 h, vs control; for stimulation of formation of collagen III (alpha 1) (mRNA, RT-qPCR): 300 ppm (0.03%)
Description: as §3, §2, §4

collagen XVI (alpha 1) = experiment: RT-qPCR gene expression in NHDF: collagen XVI (alpha 1); format: cell-based, human; settings: 300 ppm (0.03%), 24 h, vs control
Description: as §1, §2

[2] = system: heparan sulfate protoglycan 2; experiment: RT-qPCR gene expression in NHDF: heparan sulfate protoglycan 2; format: cell-based, human; settings: 300 ppm (0.03%), 24 h, vs control
Description: as §1, §2

rat experimental wounds = settings: cited from earlier work
hyaluronic acid [3] = settings: oil-in-water vehicle containing 50 ppm GEKG for sixty days; cited from earlier work
human skin explants = settings: 3H-proline-incorporation; cited from earlier work
collagen III = settings: immunofluorescence, normal human dermal fibroblasts; cited from earlier work
collagen I = settings: ELISA, normal human dermal fibroblasts; cited from earlier work

CCCCCCCC(=O)NCCC(=O)NC(Cc1cnc[nH]1)C(=O)O (stereo not drawn) [Octanoyl Carnosine, Octanoyl-beta-Ala-His-OH]
stimulation of formation of fibrillin 1 (mRNA, RT-qPCR) (fibrillin 1): 23%
stimulation of formation of collagen V (alpha 1) (mRNA, RT-qPCR) (collagen V (alpha 1)): 35%
stimulation of formation of collagen VII (alpha 1) (mRNA, RT-qPCR) (collagen VII (alpha 1)): 97%
stimulation of formation of hyaluronan synthase 2 (mRNA, RT-qPCR) (hyaluronan synthase 2): 23%
stimulation of formation of collagen I (alpha 1) (mRNA, RT-qPCR) (collagen I (alpha 1)): 38%
stimulation of formation of elastin (mRNA, RT-qPCR) (elastin): 51%
stimulation of formation of laminin (alpha 4) (mRNA, RT-qPCR) (laminin (alpha 4)): 20%
stimulation of synthesis of hyaluronic acid (hyaluronic acid [1]; alone at 100 pm): −5%
stimulation of formation of collagen VI (alpha 1) (mRNA, RT-qPCR) (collagen VI (alpha 1)): 46%
stimulation of formation of collagen III (alpha 1) (mRNA, RT-qPCR) (collagen III (alpha 1)): 120%
stimulation of formation of collagen XVI (alpha 1) (mRNA, RT-qPCR) (collagen XVI (alpha 1)): 91%
stimulation of formation of heparan sulfate protoglycan 2 (mRNA, RT-qPCR) [2]: 79%

NCCC(=O)N[C@@H](Cc1cnc[nH]1)C(=O)O [beta-alanyl-histidine]
stimulation of formation of collagen I (alpha 1) (mRNA, RT-qPCR) (collagen I (alpha 1)): 28%
stimulation of formation of collagen III (alpha 1) (mRNA, RT-qPCR) (collagen III (alpha 1)): 24%

GHK-Cu
collagen accumulation (rat experimental wounds): statistical significant increase of collagen accumulation

Gly-His-Lys [GHK]
collagen accumulation (rat experimental wounds): no effect

NH2-Gly-Glu-Lys-Gly-OH (H-GEKG-OH)
hyaluronic acid formation (hyaluronic acid [3]): stimulate hyaluronic acid formation
stimulation of synthesis of hyaluronic acid (hyaluronic acid [1]; alone at 100 or 300 ppm): up to 25%

Palmitoyl-Gly-His-Lys-OH [Palmitoyl-GHK]
increase of collagen synthesis (human skin explants): up to 75.3%
stimulation of synthesis of hyaluronic acid (hyaluronic acid [1]; alone at 10 or 30 ppm): up to 11%

TGF-beta 1: reference TGF-beta 1 (10 ng/ml) in the gene expression test
stimulation of formation of collagen I (mRNA, RT-qPCR) (collagen I (alpha 1); 10 ng/ml): 245%
stimulation of formation of collagen III (mRNA, RT-qPCR) (collagen III (alpha 1); 10 ng/ml): 164%

palmitoyl-KMO2K—OH
increase of collagen III formation (collagen III): 104%
increase of collagen I formation (collagen I): 111%
